PMC8829089, “The Pseudomonas aeruginosa homeostasis enzyme AlgL clears the periplasmic space of accumulated alginate during polymer biosynthesis” (The Journal of Biological Chemistry, 2022)

Target: T1, AlgL (NHis6-AlgL^28–362) (Pseudomonas aeruginosa, UniProt Q06749)
T1 construct: residues 28-362, signal peptide removed, N-terminal His6 tag (pET28b), expressed in E. coli; one molecule in the asymmetric unit
Assay: X-ray crystal structure, […] Å
Format: binding
Conditions: cocrystallized with 8 mM mannuronate trisaccharide (ManA3); only one sugar monomer seen in density, subsite +1 of active site

T1 sequence (Q06749 28-362): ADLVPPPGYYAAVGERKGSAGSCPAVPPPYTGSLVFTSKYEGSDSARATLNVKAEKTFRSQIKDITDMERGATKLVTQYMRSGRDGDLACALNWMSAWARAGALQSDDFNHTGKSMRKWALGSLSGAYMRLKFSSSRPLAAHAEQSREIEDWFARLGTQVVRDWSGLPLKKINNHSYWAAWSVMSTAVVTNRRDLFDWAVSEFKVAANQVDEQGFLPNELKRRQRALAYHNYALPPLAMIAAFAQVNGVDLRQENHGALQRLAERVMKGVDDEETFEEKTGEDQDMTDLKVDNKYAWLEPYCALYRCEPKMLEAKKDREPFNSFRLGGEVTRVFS

## O=C(O)[C@H]1OC(O)[C@@H](O)[C@@H](O)[C@@H]1O (stereo partly shown) [ManA, mannuronate]
  X-ray crystal structure, 1.64 Å: we were only able to detect electron density for a sugar monomer
